Converted amounts (≈) assume the structure as drawn.

The record followed here is patent publication US6835755B1, “Naphthoquinone derivatives and their use in the treatment and control of tuberculosis” (priority 1999, dated 2004).

In this experiment the test system is Mycobacterium tuberculosis sensitive strain (H37Rv). Briefly: microbe, parasite or virus in culture. It is filed as cell-based. To be noted: for ΔGI values of plant extracts: at MIC, mean ± s.d.

As for `Cc1cc(O)c2c(c1)C(=O)C=CC2=O` [7-methyljuglone, 5-hydroxy-7-methyl-1,4-naphtoquinone], the “ΔGI values of plant extracts” value (H37Rv sensitive strain ATCC27294) turned out to be 0 ± 1. Moreover, under “H37Rv sensitive strain ATCC27294, radiometric method”, the “MIC (Minimal inhibitory concentration)” value was determined as 50 µg/mL (≈ 266 µM).
Turning to `Cc1cc(O)c2c(c1)C(=O)C(c1c(C)cc3c(c1O)C(=O)C=CC3=O)=CC2=O` [diospyrin, 5,5′ dihydroxy 7,7′ binaphthoquinone], the “ΔGI values of plant extracts” value (H37 sensitive strain) was −1 ± 1.41. For the same compound, the MIC (Mycobacterium tuberculosis, H37RV, H37 sensitive strain, radiometric method) is 100 µg/mL (≈ 267 µM).
